Experimental data reported in US20060040957A1, “BICYCLIC PYRIMIDINE MATRIX METALLOPROTEINASE INHIBITORS” (priority 2001, published 2006).
Structures can show the parent of a compound that is named as a salt.

biological target: MMP-13CD (catalytic domain of collagenase 3) (Homo sapiens, UniProt P45452); experiment: Thiopeptolide substrate hydrolysis assay, MMP-13CD; assay type: biochemical; settings: IC50 (μM) Versus Certain MMPs: MMP-13 CD, thiopeptolide substrate, HEPES pH 7.0, 22° C.
Text: Thiopeptolide substrates show virtually no decomposition or hydrolysis at or below neutral pH in the absence of a matrix metalloproteinase enzyme.

First: Cc1c(=O)n(Cc2ccccc2)c(=O)n2cc(C(=O)NCc3cn4ccsc4n3)sc12 [Example 38, 6-Benzyl-8-methyl-5,7-dioxo-6,7-dihydro-5H-thiazolo[3,2-c]pyrimidine-2-carboxylic acid(imidazo[2,1-b]thiazol-6-ylmethyl)-amide]
Second: Cc1cccc(CNC(=O)c2cn3c(=O)n(Cc4ccccc4)c(=O)c(C)c3s2)n1 [Example 41, 6-Benzyl-8-methyl-5,7-dioxo-6,7-dihydro-5H-thiazolo[3,2-c]pyrimidine-2-carboxylic acid(6-methyl-pyridin-2-ylmethyl)-amide]
The IC50 of the first is 4-fold higher: 25 µM for the first, 6.2 µM for the second.

Compared with Cc1c(=O)n(Cc2ccccc2)c(=O)n2cc(C(=O)NCc3cnn(C)c3)sc12 [Example 39, 6-Benzyl-8-methyl-5,7-dioxo-6,7-dihydro-5H-thiazolo[3,2-c]pyrimidine-2-carboxylic acid(1-methyl-1H-pyrazol-4-ylmethyl)-amide], Cc1c(=O)n(Cc2ccccc2)c(=O)n2cc(C(=O)NCc3ccccn3)sc12 [Example 47, 6-Benzyl-8-methyl-5,7-dioxo-6,7-dihydro-5H-thiazolo[3,2-c]pyrimidine-2-carboxylic acid(pyridin-2-ylmethyl)-amide hydrochloride] is 4.3-fold higher in IC50: 2.3 µM for the first, 9.9 µM for the second.

Compound C=C(C)Cn1c(=O)c(C)c2sc(C(=O)NCc3ccc(F)cc3)cn2c1=O [Example 93, 8-Methyl-6-(2-methyl-allyl)-5,7-dioxo-6,7-dihydro-5H-thiazolo[3,2-c]pyrimidine-2-carboxylic acid 4-fluoro-benzylamide] has an IC50 of 1.55 µM.

same assay, conditions: thiopeptolide substrate, HEPES pH 7.0, 22° C.; read-out: IC50 (μM) Versus Certain MMPs: MMP-13 CD

C#CCNC(=O)c1cn2c(=O)n(Cc3ccccc3)c(=O)c(C)c2s1 [Example 40, 6-Benzyl-8-methyl-5,7-dioxo-6,7-dihydro-5H-thiazolo[3,2-c]pyrimidine-2-carboxylic acid prop-2-ynylamide] and Cc1nc(CNC(=O)c2cn3c(=O)n(Cc4ccccc4)c(=O)c(C)c3s2)cs1 [Example 52, 6-Benzyl-8-methyl-5,7-dioxo-6,7-dihydro-5H-thiazolo[3,2-c]pyrimidine-2-carboxylic acid(2-methyl-thiazol-4-ylmethyl)-amide hydrochloride] cannot be ordered by IC50: over 100 µM for the first, over 100 µM for the second.

First: Cc1c(=O)n(Cc2ccccc2)c(=O)n2cc(C(=O)NCC3CCNCC3)sc12 [Example 45, 6-Benzyl-8-methyl-5,7-dioxo-6,7-dihydro-5H-thiazolo[3,2-c]pyrimidine-2-carboxylic acid(piperidin-4-ylmethyl)-amide hydrochloride]
Second: Cc1c(=O)n(CCC(=O)c2ccccc2)c(=O)n2cc(C(=O)NCc3ccc(F)cc3)sc12 [Example 86, 8-Methyl-5,7-dioxo-6-(3-oxo-3-phenyl-propyl)-6,7-dihydro-5H-thiazolo[3,2-c]pyrimidine-2-carboxylic acid 4-fluoro-benzylamide]
The IC50 of the first is higher: over 100 µM for the first, 0.35 µM for the second. The second is the more potent here.

First: Cc1c(=O)n(Cc2nn[nH]n2)c(=O)n2cc(C(=O)NCc3ccc(F)cc3)sc12 [Example 66, 8-Methyl-5,7-dioxo-6-(2H-tetrazol-5-ylmethyl)-6,7-dihydro-5H-thiazolo[3,2-c]pyrimidine-2-carboxylic acid 4-fluoro-benzylamide]
Second: Cc1c(=O)n(CCCCCC#N)c(=O)n2cc(C(=O)NCc3ccc(F)cc3)sc12 [Example 89, 6-(5-Cyano-pentyl)-8-methyl-5,7-dioxo-6,7-dihydro-5H-thiazolo[3,2-c]pyrimidine-2-carboxylic acid 4-fluoro-benzylamide]
The IC50 of the first is 13-fold higher: 14 µM for the first, 1.08 µM for the second. The second is the more potent here.

Cc1c(=O)n(CCS(=O)(=O)c2ccc(Cl)cc2)c(=O)n2cc(C(=O)NCc3ccncc3)sc12 [Example 83, 6-[2-(4-Chloro-benzenesulfonyl)-ethyl]-8-methyl-5,7-dioxo-6,7-dihydro-5H-thiazolo[3,2-c]pyrimidine-2-carboxylic acid(pyridin-4-ylmethyl)-amide hydrochloride] and Cc1c(=O)n(C(C)c2ccccc2)c(=O)n2cc(C(=O)NCc3ccc(F)cc3)sc12 (stereo not shown) [Example 87, 8-Methyl-5,7-dioxo-6-(1-phenyl-ethyl)-6,7-dihydro-5H-thiazolo[3,2-c]pyrimidine-2-carboxylic acid 4-fluoro-benzylamide] are within 1.5-fold of each other in IC50: 2.6 µM for the first, 2.1 µM for the second.
